Data from patent publication US20260356834A1, “ANTICONVULSIVE COMPOUNDS AND USES THEREOF” (Jazz Pharmaceuticals Research UK Limite, priority 2023, published 2026).
“And” between values parts separate entries of the source, which are not always exact repeats. Equal values may be shown once. Read-outs that look alike come from different tables or passages of the source. Marks after values point to notes of the source that are not given here.

Experiments:
DBA/2 mice [1] = conditions: De Sarro et al., 2017; cited from earlier work
RjOrl: Swiss mice [2] = assay: mouse 6 Hz (44 mA) model of partial seizures; assay type: in vivo; conditions: for Mean Forelimb Clonus +/− SEM: score 0-2; for Change from vehicle (forelimb clonus): vs vehicle (HPMC)
Excerpt: The 6 Hz (44 mA) model of partial seizures, which detects anticonvulsant activity, follows that described by Brown et al. 1953.
[…] A decrease in forelimb clonus score is indicative of protection from seizure and an anticonvulsive effect.
When conducted at a 44 mA stimulus intensity in mice, the 6 Hz test can differentiate compounds with potential for the treatment of focal-onset seizures that are often resistant to current anti-epileptic drugs.
Male RjOrl: Swiss mice (Janvier Labs, 53940 Le Genest-Saint-Isle, France), 5 weeks old, weighing 27-38 g at the beginning of the experiment. Animals were acclimatized to the Test Facility for at least 5 days after delivery and randomly housed in groups of 5 to 8 in macrolon cages on wood litter with free access to food and water.
(§1) The animal house was maintained under artificial lighting (12 hours) between 7:00 and 19:00 in a controlled ambient temperature of 22±2 °C and relative humidity between 30-70%.
Before transcorneal stimulation, a drop of tetracaine solution (1%) was applied on each eye of the mouse for local anesthesia. Between 1-10 minutes later and at the designated pre-treatment (see below), the mice were administered a rectangular current (44 mA, rectangular pulse: 0.2 ms pulse width, 3 s duration, (6 Hz) via corneal electrodes connected to a constant current shock generator (Ugo Basile: type 7801).
The results for the number of seizures as reflected by forelimb clonus were recorded immediately after current administration. Forelimb clonus was scored as absent (0=no forelimb clonus), mild (1=clonus with one forelimb) and strong (2=clonus with both forelimbs). The experimenters were blinded to the treatment. […]
The administration volume was 10 mL/kg.
Due to the number of animals tested, the experiment was divided in 2 sub-experiments on 2 consecutive days with equivalent numbers of mice per group and per sub-experiment.
Data were discrete values so considered to be non-normally distributed based on validation data, therefore non-parametric tests were utilized. Quantitative data (scores) with the test substance were analyzed by comparing test compound-treated groups with the 1:2:17 vehicle control using Kruskal-Wallis test with Dunn's multiple comparisons test when the Kruskal-Wallis test was significant. Quantitative data with the reference substance were analyzed using Mann-Whitney U test as compared to saline vehicle.

C57BL/6J mice [3] = assay: mouse maximal electroshock seizure threshold model (MEST); assay type: in vivo
Experimental: Vehicle=1:2:17 ethanol:Solutol® (Kolliphor® HS 15):saline: 1 mL of ethanol and 2 mL of solutol were warmed to 60 °C and 17 mL of 0.9% saline was added slowly. […]
Vehicle=0.5% HPMC and 0.1% Tween 80:0.5% HPMC and 0.1% Tween 80 in water.

C57BL/6J mice [4] = conditions: cited from earlier work
C57BL/6J mice [5] = conditions: cited from earlier work; remark: listed apart in the source
CB1 = conditions: cited from earlier work
CB2 receptors = conditions: cited from earlier work
RjOrl: Swiss mice [6] = conditions: 44 mA; Klein et al., 2017; cited from earlier work
[7] = in vivo; cited from earlier work
RjOrl: Swiss mice [8] = assay: mouse 6 Hz (44 mA) model of partial seizures; assay type: in vivo; conditions: 200 mg/kg i.p., 30 min; vs vehicle (HPMC)
DBA/2 mice [9] = assay: mouse audiogenic seizure test; assay type: in vivo; conditions: 180 mg/kg i.p., 30 min
Excerpt: The Audiogenic Seizure Test, which detects anticonvulsant activity, follows that described by Durmüller et al., 1993. Mice of the DBA/2 strain undergo an age-dependent sequence of convulsions (wild-running, clonic convulsion, tonic convulsion and respiratory arrest) within 60 seconds of exposure to a loud sound of 110-120 dB. The type of convulsions are consistent with aspects of generalised seizure in humans.
Male DBA/2 mice (3-4 weeks old) were supplied by Janvier Labs (53940 Le Genest-Saint-Isle, France); weight range 6-13 g at the beginning of the experiment. Animals were acclimatized to the Test Facility for 1 day after delivery and randomly housed in groups of 5 in macrolon cages on wood litter with free access to food and water.
as §1
Mice were individually transferred (at 3-5 minutes intervals) from the preparation room into an adjacent experimental room and body temperature was measured using a rectal thermometer (Digital Laboratory Thermometer: Model BAT-12). Immediately after, they were placed in a Plexiglas jar (Diameter=40 cm; Height=35 cm) mounted with an electric bell (110-120 dB, supplier Leroy Merlin, France). Upon activating the bell, the occurrences and latencies to wild running fits, clonic and tonic seizures were measured. Deaths were also recorded. The bell was activated until a tonic seizure occurred, or for a maximum of 60 seconds.
The experiment included groups of 10 mice per group. Experimenters were only partially blinded to treatment group as pre-treatment times were different.
The test substance was evaluated at various doses, administered i.p. (10 ml/kg) 15 or 30 minutes before the test, and compared with a vehicle control group.
Due to the number of animals tested, the experiment was divided in 2 sub-experiments on 2 separate days (7 days apart) with 5 mice per group in each sub-experiment.
Data were tested for normality using d'Agostino-Pearson Test and found to not follow a normal distribution. Statistical outliers were not identified or removed because no behavioural outliers were identified. Quantitative data (latencies) with the test substance were analyzed by comparing treated groups with vehicle control using Kruskal-Wallis test followed by Dunn's multiple comparisons test. Quantitative data with the reference substance were analyzed using Mann-Whitney U test. Quantal data (frequencies) were analyzed by comparing treated groups with vehicle control using Fisher's Exact Probability test.

Compound: NC(=O)N1c2ccccc2C=Cc2ccccc21 [carbamazepine]
- protection from clonic convulsions, tonic convulsions and respiratory arrest (DBA/2 mice [1]): protect DBA/2 mice from clonic convulsions, tonic convulsions and respiratory arrest

Compound: CCCc1cc(O)c(-c2c(C)c(F)cn3ccnc23)c(O)c1 [Compound 11, 2-(6-Fluoro-7-methylimidazo[1,2-a]pyridin-8-yl)-5-propylbenzene-1,3-diol]
- Mean Forelimb Clonus +/− SEM (RjOrl: Swiss mice [2]; 25 mg/kg p.o., 15 min): 0.85 ± 0.13
- Change from vehicle (forelimb clonus) (RjOrl: Swiss mice [2]; 25 mg/kg p.o., 15 min): −15%
- Mean Forelimb Clonus +/− SEM (RjOrl: Swiss mice [2]; 50 mg/kg p.o., 30 min): 0.55 ± 0.11
- Change from vehicle (forelimb clonus) (RjOrl: Swiss mice [2]; 50 mg/kg p.o., 30 min): −45%
- Mean Forelimb Clonus +/− SEM (RjOrl: Swiss mice [2]; 100 mg/kg p.o., 30 min): 0.80 ± 0.14
- Change from vehicle (forelimb clonus) (RjOrl: Swiss mice [2]; 100 mg/kg p.o., 30 min): −20%
- Mean Forelimb Clonus +/− SEM (RjOrl: Swiss mice [2]; 200 mg/kg p.o., 60 min): 0.75 ± 0.12
- Change from vehicle (forelimb clonus) (RjOrl: Swiss mice [2]; 200 mg/kg p.o., 60 min): −25%
- CC50 +/− SEM (C57BL/6J mice [3]; 5 mg/kg p.o., 15 min, HPMC vehicle): 25.8 ± 1.9 mA
- Change from vehicle (CC50) (C57BL/6J mice [3]; 5 mg/kg p.o., 15 min, vs HPMC vehicle): −3%
- CC50 +/− SEM (C57BL/6J mice [3]; 25 mg/kg p.o., 15 min, HPMC vehicle): 37.5 ± 2.2 mA
- Change from vehicle (CC50) (C57BL/6J mice [3]; 25 mg/kg p.o., 15 min, vs HPMC vehicle): 42%***
- CC50 +/− SEM (C57BL/6J mice [3]; 50 mg/kg p.o., 30 min, HPMC vehicle): 100.8 ± 3.9 mA
- Change from vehicle (CC50) (C57BL/6J mice [3]; 50 mg/kg p.o., 30 min, vs HPMC vehicle): 281%***
- CC50 +/− SEM (C57BL/6J mice [3]; 100 mg/kg p.o., 30 min, HPMC vehicle): 250.0 ± 3.7 mA
- Change from vehicle (CC50) (C57BL/6J mice [3]; 100 mg/kg p.o., 30 min, vs HPMC vehicle): 843%***

Compound: picrotoxin
- seizure threshold (C57BL/6J mice [4]; known convulsive agent): a reduction in seizure threshold
- seizure threshold (C57BL/6J mice [5]; known convulsive agent): a reduction in seizure threshold

Compound: CN1C(=O)CN=C(c2ccccc2)c2cc(Cl)ccc21 [Diazepam, diazepam, reference compound]
- anticonvulsive properties in the MEST test (C57BL/6J mice [4]; mouse, in vivo): exhibit anticonvulsive properties
- anticonvulsive properties in the MEST test (C57BL/6J mice [5]; mouse, in vivo): exhibit anticonvulsive properties
- Change from vehicle (CC50) (C57BL/6J mice [3]; 2.5 mg/kg i.p., 30 min, vs 1:1:18 ethanol:Kolliphor EL:saline vehicle): 406%^###
- Change from vehicle (CC50) (C57BL/6J mice [3]; 2.5 mg/kg i.p., 30 min, vs 1:2:17 ethanol:Solutol:saline vehicle): 439%^###
- Change from vehicle (CC50) (C57BL/6J mice [3]; 2.5 mg/kg i.p., 30 min, vs HPMC vehicle): 652%*** and 526%***

Compound: C=C(C)[C@@H]1CCC(C)=C[C@H]1c1c(O)cc(CCCCC)cc1O [CBD, cannabidiol]
- binding to CB1 (CB1): does not bind
- binding to CB2 receptors (CB2 receptors): does not bind
- anticonvulsive effects in the 6 Hz test (RjOrl: Swiss mice [6]): exhibit anticonvulsive effects
- psychotropic effects associated with cannabis [7]: does not induce the psychotropic effects

Compound: CCCC(CCC)C(=O)[O-].[Na+] [Sodium Valproate, sodium valproate, reference compound]
- Change from vehicle (forelimb clonus) (RjOrl: Swiss mice [8]): −60%***
- Change from vehicle 1 (forelimb clonus) (RjOrl: Swiss mice [2]; 200 mg/kg i.p., 30 min, vs vehicle 1 (saline)): −82%***
- Change from vehicle 2 (forelimb clonus) (RjOrl: Swiss mice [2]; 200 mg/kg i.p., 30 min, vs vehicle 2 (1:2:17 ethanol:Kolliphor HS15:saline)): −89%***
- Clonic convulsion - presence, % (DBA/2 mice [9]): 30%
- Tonic convulsion - presence, % (DBA/2 mice [9]): 0%
- Wild running - presence, % (DBA/2 mice [9]): 30%
- latencies to clonic convulsions (significance in words) (DBA/2 mice [9]): significantly increased
- latencies to tonic convulsions (significance in words) (DBA/2 mice [9]): significantly increased
- latencies to wild running (significance in words) (DBA/2 mice [9]): significantly increased
- number of mice displaying clonic convulsions (significance in words) (DBA/2 mice [9]): significantly decreased
- number of mice displaying tonic convulsions (significance in words) (DBA/2 mice [9]): significantly decreased
- number of mice displaying wild running (significance in words) (DBA/2 mice [9]): significantly decreased
- Clonic convulsion - presence, Total (DBA/2 mice [9]; number of mice, n = 10): 1
- Tonic convulsion - presence, Total (DBA/2 mice [9]; number of mice, n = 10): 0
- Wild running - presence, Total (DBA/2 mice [9]; number of mice, n = 10): 1
- protection from clonic convulsions, tonic convulsions and respiratory arrest (DBA/2 mice [1]): protect DBA/2 mice from clonic convulsions, tonic convulsions and respiratory arrest
- CC50 +/− SEM (C57BL/6J mice [3]; 150 mg/kg i.p., 30 min, 1:1:18 ethanol:Kolliphor EL:saline): 139.2 ± 2.1 mA
- CC50 +/− SEM (C57BL/6J mice [3]; 150 mg/kg i.p., 30 min, 1:2:17 ethanol:Solutol:saline): 104.2 ± 1.0 mA
- CC50 +/− SEM (C57BL/6J mice [3]; 150 mg/kg i.p., 30 min, study with HPMC vehicle): >300.0 mA and 215.8 ± 30.1 mA
- Change from vehicle (CC50) (C57BL/6J mice [3]; 150 mg/kg i.p., 30 min, vs 1:1:18 ethanol:Kolliphor EL:saline vehicle): 457%^###
- Change from vehicle (CC50) (C57BL/6J mice [3]; 150 mg/kg i.p., 30 min, vs 1:2:17 ethanol:Solutol:saline vehicle): 346%^###
- Change from vehicle (CC50) (C57BL/6J mice [3]; 150 mg/kg i.p., 30 min, vs HPMC vehicle): >1043%*** and 714%***
